Experiments:
Hsp70 = test: Immunofluorescence analysis of Hsp70 localization; type: cell-based, human; details: Molt 4 cells, confocal microscope
Description: Immunofluorescence Analysis:
After treatment with the tested compound, cells were fixed with 4% paraformaldehyde in 50 mM HEPES buffer (pH 7.3) for 30 minutes, and permeabilized for 20 minutes with 0.2% Trition X-100 in PBS (pH 7.4). To prevent non-specific protein binding, cells were incubated with 5% BSA in PBS containing 0.05% Trition X-100 (T-PBS) for 1 hour at room temperature. Cells were then incubated with the primary Hsp70 antibodies (1:500) for 2 hours and further with secondary antibodies (Alexa Fluor […] goat anti-mouse IgG (H+L) (Life Technologies, Carlsbad, Calif., U.S.A.)) diluted at 1:1000 for 1 hour at room temperature. After washing with PBS, cells were observed under a FV1000 confocal laser scanning microscope (Olympus, Tokyo, Japan).
The induction of Hsp70 is the biomarker of Hsp90 with N-terminal inhibition. Aiming to understand the relation between Hsp90 function and the expression of Hsp70 and 90 clients, Molt 4 cells were treated with compound 1 (0.0625 μg/mL) for different time intervals. […] Furthermore, as shown in FIG. 5(B), Hsp90 client proteins were suppressed, including p70^S6K, NFκB, Raf-1, p-GSK3β, MEK 1 and XIAP ([…] protein), MDM 2 and Rb2 (oncoprotein), and CDK4 (cell cycle regulatory protein), HIF 1 and HSF1 (transcription factor). […]

Molt 4 cells [1] = test: Annexin V/PI apoptosis assay; type: cell-based, human; details: Molt 4 cells, 0.0625, 0.125 and 0.25 μg/mL, 24 hours, dose-dependent
Description: Annexin V/Propidium Iodide (PI) Apoptosis Assay:
The externalization of phosphatidylserine (PS) and membrane integrity were quantified using an annexin V-fluorescein isothiocyanate (annexin V-FITC) staining kit. In brief, 10^6 cells were grown in 35 mm diameter plates and were labeled with annexin V-FITC (10 μg/mL) and PI (20 μg/mL) prior to harvesting. After labeling, all plates were washed with a binding buffer and harvested. Cells were resuspended in the binding buffer at a concentration of 2×10^5 cells/mL before analysis by flow cytometer FACS-Calibur (Becton-Dickinson, San Jose, Calif., U.S.A.) and CellQuest software. Approximately 10,000 cells were counted for each determination.

Molt 4 cells [2] = test: Intracellular calcium accumulation (Fluo 3, flow cytometry); type: cell-based, human
Description: Determination of Reactive Oxygen Species (ROS) Generation, Calcium Accumulation, and Matrix Metalloproteinase (MMP) Disruption:
MMP disruption, calcium accumulation and ROS generation were detected with the JC-1 cationic dye (5 μg/mL), the fluorescent calcium indicator (Fluo 3, […]) and the carboxy derivative of fluorescein (carboxy-H2DCFDA, […]), respectively. In brief, the treated cells were labeled with a specific fluorescent dye for 30 minutes. After labeling, cells were washed with PBS and resuspended in PBS at a concentration of 1×10^6 cells/mL before analysis via flow cytometry.
Oxidative stress is manifested by ROS overexpression and cannot be balanced by the available antioxidant machinery. Compound 1 of the present invention can damage the integrity of mitochondria, which are the major production sites of the superoxide anion, […]. The induction of the intracellular formation of ROS by compound 1 was determined with a carboxyl derivative of fluorescein, carboxy-H2DCFDA dye using flow cytometric analysis. […] Furthermore, the effect of compound 1 on the release of intracellular Ca^2+, was evaluated using fluorescent calcium indicator, Fluo 3. […] Thus, the effect of compound 1 (0.0625 μg/mL) at different time intervals (0, 3, 6 and 9 hours) on the level of nuclear DNA integrity was determined. […]

Molt 4 cells [3] = test: Neutral comet assay for DNA double-strand breaks; type: cell-based, human; details: 0.0625 μg/mL, 0, 3, 6 and 9 hours
Description: Neutral Comet Assay for Detection of DNA Double-Strand Breaks (DSBs):
The assay was carried out using a CometAssay™ Kit (Trevigen, Gaithersburg, Md., U.S.A.) following the manufacturer's protocol for the neutral Comet assay. Briefly, cancer cells (2×10^5 cells/mL) were treated with compound 1 (0.0625 μg/mL) at the indicated time. Cells were combined with 1% low melting point agarose at a ratio of 1:10 (v/v) and immediately 75 μL of the mixture was pipetted onto CometSlide™ and allowed to set at 4° C. in the dark. The slides were immersed in an ice-cold lysis solution (Trevigen) for 30 to 60 minutes. […] The fluorescence images were analyzed using the TriTek Comet Image program to circumscribe the “head” and the “tail” regions of each comet and the integrated fluorescence values of each defined area were recorded. The comet length was measured from the trailing edge of the nucleus to the leading edge of the tail. […] The results were expressed as mean±standard deviation (SD) (*p<0.05).
Oxidative stress is manifested by ROS overexpression and cannot be balanced by the available antioxidant machinery. […] The induction of the intracellular formation of ROS by compound 1 was determined with a carboxyl derivative of fluorescein, carboxy-H2DCFDA dye using flow cytometric analysis. […]

Compound: CC[C@@]1(C)CCC[C@]2(C)[C@H]3C[C@@H](OC(=O)C[C@@H](C)O)[C@]4(C)[C@@H](C=O)C(C(C)=O)=CC[C@H]4[C@]3(C)CC[C@@H]12 (relative stereo) [Compound 1, 12β-(3′β-hydroxybutanoyloxy)-20,24-dimethyl-24-oxo-scalara-16-en-25-al]
- Localization of Hsp70 (Hsp70): predominantly accumulated in cytosol
- Apoptotic population (annexin-V/PI) (Molt 4 cells [1]): increase in the apoptotic population
- Increase in intracellular Ca2+ accumulation versus MFI of control (Molt 4 cells [2]; 2 hours): 1.06 folds
- Increase in intracellular Ca2+ accumulation versus MFI of control (Molt 4 cells [2]; 18 hours): 1.06 folds
- Cytotoxic effect IC50, Cal-27 (Cal-27): 0.56 µg/mL
- DNA migration (comet tail, DSBs) (Molt 4 cells [3]): increased the degree of DNA migration

Reference: patent US10314847B2, “Scalarane sesterterpenoid, pharmaceutical composition and topoisomerase II and Hsp90 inhibitor for treating cancer, and use and preparation method thereof” (NATIONAL DONG HWA UNIVERSITY, priority 2017, dated 2019)
